Test results taken from patent US9150505B2, “Prophylactic or therapeutic agent for diabetes or obesity” (AJINOMOTO CO., INC., priority 2010, dated 2015).

Assays:
[1] = test system: NCI-H716 cells; experiment: Promotion of GLP-1 secretion in NCI-H716 cells; assay type: cell-based, human; details: 30 minutes at 37° C., buffer assumed to be 1.0
Experimental: Human appendix-derived cell line NCI-H716 (ATCC No CCL-251) was cultured in a 10% FBS-containing DMEM/HamF-12 medium at 37° C. in the presence of 5% CO2. NCI-H716 cells were seeded in a poly-D-lysine-coated 96-well plate at 100,000 cells/well and cultured for two days. Prior to sample addition, wells were washed with Hepes buffer (20 mM Hepes, 146 mM NaCl, 5 mM KCl, 1.5 mM CaCl2, 1 mM MgSO4, 5.5 mM D-glucose, 0.2% BSA, pH 7.4). Fifty μl of a sample solution dissolved in the same buffer was added and incubated at 37° C. for 30 minutes. The above-described compounds in Example 6 (Compound 1) (10 mM), Example 48 (Compound 2) (5 mM) and Example 14 (Compound 3) (2 mM) were used as the samples. In addition, a Hepes buffer was used as a control. After collecting the supernatant, the cells were precipitated by centrifugation (5,000×g, 1 min.) to collect the supernatant thereof. GLP-1 level in the supernatant was determined as described below according to a quantitative method for GLP-1 that uses GLP-1 receptor gene expression cells.
According to a routine method (Lopez de Maturana R, Willshaw A, Kuntzsch A, Rudolph R, Donnelly D. J Biol Chem. 2003 Mar. 21; 278 (12):10195-200), human GLP-1 receptor gene (Nucleotide sequence 1) was integrated into pcDNA3.1 to prepare human GLP-1 receptor gene expression plasmid hGLP-1R/pcDNA3.1. Moreover, chimeric gene (Nucleotide sequence 2) of human Gα15 gene and human gustducin gene was integrated into pcDNA3.1 to prepare G protein expression plasmid Gα15-gust/pcDNA3.1. […] After 24 hours of cultivation in a CO2 incubator, changes in the fluorescence intensity were determined starting immediately after sample addition according to the Ca^2+ fluorescence indicator FLIPR Calcium 4 Assay Kit protocol (Molecular Devices) using FlexStation (Molecular Devices). Concentration dependency of human GLP-1 (7-36 Amide; Peptide Institute) with respect to the changes in the fluorescence intensity was determined and used as a standard curve for quantitating the sample. […]

[2] = test system: NCI-H716 cells; experiment: Promotion of CCK secretion in NCI-H716 cells; assay type: cell-based, human
Experimental: Human appendix-derived cell line NCI-H716 (ATCC No CCL-251) was cultured in a 10% FBS-containing DMEM/HamF-12 medium at 37° C. in the presence of 5% CO2. NCI-H716 cells were seeded in a poly-D-lysine-coated 24-well plate at 600,000 cells/well and cultured for two days. Prior to sample addition, wells were washed with Hepes buffer (20 mM Hepes, 146 mM NaCl, 5 mM KCl, 1.5 mM CaCl2, 1 mM MgSO4, 5.5 mM D-glucose, 0.02% BSA, pH 7.4). 300 μl of a sample solution dissolved in the same buffer was added and incubated at 37° C. for 30 minutes. Compound 1 in Example 6 (2 mM) and Compound 2 in Example 48 (1 mM) were used as the samples. In addition, a Hepes buffer was used as a control. After collecting the supernatant, the cells were precipitated by centrifugation (5,000×g, 1 min.) to collect the supernatant thereof, which was lyophilized in Speed Vac Concentrator (SAVANT) and dissolved by addition of 60 μl of water. CCK level in the solution was determined using Enzyme immuno assay kit (EK-069-04; PHENOIX PHARMACEUTICALS).

[3] = test system: normal mice (C57BL/6J); experiment: Effects on gastric emptying using mouse (phenol red method); assay type: in vivo; details: 2.4 nmol/kg subcutaneously, 24 h fasted mice, phenol red 15 min after drug, stomach resected 20 min later; vehicle 82.4 ± 7.0%
Experimental: A dosing vehicle (distilled water) or 3 mg/kg of the compound in Example 6 (Compound 1) was orally administered in a forced manner using a mouse sonde to normal mice (C57BL/6J, 7-week-old) after 24 hours of fasting. As positive controls, a group subcutaneously injected with Exendin-4 (Sigma) (2.4 nmol/kg) that was known to have an effect of suppressing gastric emptying was also prepared. 10 ml/kg of dosing vehicle was also orally administered to the mice of the Exendin-4 group. Fifteen minutes after drug administration, phenol red solution (0.5 mg/ml phenol red+1.5% methylcellulose+distilled water) was orally administered in a forced manner at a volume of 5 ml/kg. After another 20 minutes, the stomach was resected from each mouse and phenol red remaining in the stomach was extracted in 0.1N NaOH solution. Absorbance of the extracted solution was determined at 560 nm to quantitate the amount of remaining phenol red (S). While the amount of phenol red (C) extracted from the stomach resected immediately after the administration of phenol red was assumed to be 100%, the amount of remaining phenol red […] with respect to C was calculated, as a gastric emptying volume (%), based on the following expression. Gastric emptying volume(%)=(1−(S/C))×100

Cc1c(Cl)cc(S(=O)(=O)O)cc1NC(=O)NC[C@H](N)C(=O)O [Example 14, (2S)-2-amino-3-{[(3-chloro-2-methyl-5-sulfophenyl)carbamoyl]amino}propanoic acid]
Relative secretion volumes (GLP-1) ([1]; 2 mM): 3.54

Cc1c(Cl)cc(NC(=S)NC[C@H](N)C(=O)O)cc1S(=O)(=O)O [Example 48, (2S)-2-amino-3-{[(3-chloro-4-methyl-5-sulfophenyl)carbamothioyl]amino}propanoic acid]
Relative secretion volumes (CCK) ([2]; 1 mM, 30 minutes at 37° C., buffer assumed to be 1.0): 2.22
effect of promoting CCK secretion ([2]; result in words): confirmed to have an effect of promoting CCK secretion
Relative secretion volumes (GLP-1) ([1]; 5 mM): 15.42

Exendin-4: Positive control (Sigma), known to have an effect of suppressing gastric emptying
Gastric emptying volume [3]: 51.2 ± 4.2% (*)
